Data set [1] deals with T1, Bcl-2-like protein 1 (Homo sapiens, UniProt Q07817). The data set can be described thus: Inhibition of FITC-labeled BH3 peptide binding to Bcl-xl (unknown origin) expressed in Escherichia coli BL21 (DE3) incubated for 0.5 hrs by TR-FRET assay. On the technique in general: In TR-FRET formats the signal depends on donor and acceptor labels being close together.
Data set [2] addresses Induced myeloid leukemia cell differentiation protein Mcl-1 (Homo sapiens, UniProt Q07820). Nature of the data set: Binding affinity to full length human MCL1 expressed in Escherichia coli BL21 (DE3) assessed as inhibition constant preincubated for 30 mins followed by 5-FAM-QEDIIIINIARHLAQVGDSMD-RSIPPG tracer addition and measured after 20 mins by fluorescence polarization assay.

The test system of data set [3] is RS4-11. Nature of the data set: Induction of apoptosis in human RS4-11 cells assessed as increase in cleaved caspase 3 expression incubated for 48 hrs by western blot analysis. The data set is classed as functional, cell-based. For orientation: A western blot detects proteins with antibodies after separation by electrophoresis.
The next data set has as its system HEK-293T. The data set can be described thus: Cytotoxicity against HEK293T cells assessed as reduction in cell viability incubated for 48 hrs by CCK8 assay. The following applies: Homo sapiens. In general terms: Tetrazolium assays rely on reduction of a dye to a coloured formazan, in cell work by metabolically active cells.
Data set [4] concerns RS4-11. The data set can be described thus: Induction of apoptosis in human RS4-11 cells assessed as viable cells at 20 uM measured after 24 hrs by Annexin V/7-AAD and MitoSense Red staining based flow cytometry analysis relative to control (reference value: 94.15 %). The note with it: read-out: Activity. The data set is classed as functional.
The test system of data set [5] is RS4-11. Nature of the data set: Induction of apoptosis in human RS4-11 cells assessed as early apoptotic cells at 20 uM measured after 24 hrs by Annexin V/7-AAD and MitoSense Red staining based flow cytometry analysis relative to control (reference value: 3.75 %). The data set is classed as functional.
The subject of data set [6] is RS4-11. The data set can be described thus: Induction of apoptosis in human RS4-11 cells assessed as late apoptotic cells at 20 uM measured after 24 hrs by Annexin V/7-AAD and MitoSense Red staining based flow cytometry analysis relative to control (reference value: 0.99 %). The data set is classed as functional.
The subject of data set [7] is RS4-11. Nature of the data set: Induction of apoptosis in human RS4-11 cells assessed as necrotic cells at 20 uM measured after 24 hrs by Annexin V/7-AAD and MitoSense Red staining based flow cytometry analysis relative to control (reference value: 1.11 %). The data set is classed as functional.
Data set [8] deals with RS4-11. The data set can be described thus: Induction of apoptosis in human RS4-11 cells assessed as increase in cleaved caspase 9 expression incubated for 48 hrs by western blot analysis. The data set is classed as functional, cell-based.
The test system of data set [9] is RS4-11. The data set can be described thus: Induction of apoptosis in human RS4-11 cells assessed as increase in cleaved PARP expression incubated for 48 hrs by western blot analysis. The data set is classed as functional, cell-based.
For another data set, the system named is MCF7. Nature of the data set: Inhibition of Bcl-2/Bim interaction in human MCF7 cells assessed as disruption of Bcl-2/Bim complex at 10 uM measured after 24 hrs by co-immunoprecipitation based western blot analysis relative to control. The data set is classed as cell-based.
The subject of data set [10] is RS4-11. Nature of the data set: Antitumor activity against human RS4-11 cells xenografted in NOD/SCID mouse assessed as reduction in tumor volume at 50 mg/kg, ip administered every 2 days for 22 days and measured every 3 days relative to control. The data set is classed as functional. The arrangement: scale not given: the % may be the effect or the level left. The following applies: time 22 day.

Data set [11] deals with RS4-11. Nature of the data set: Antitumor activity against human RS4-11 cells xenografted in NODSCID mouse assessed as inhibition of tumor growth at 12.5 mg/kg, ip administered every 2 days for 22 days and measured every 3 days relative to control. The data set is classed as functional. The arrangement: scale not given: the % may be the effect or the level left. The following applies: time 22 day.

Data set [12] concerns RS4-11. The data set can be described thus: Antitumor activity against human RS4-11 cells xenografted in NOD/SCID mouse assessed as inhibition of tumor growth at 25 mg/kg, ip administered every 2 days for 22 days and measured every 3 days relative to control. More on the design: scale not given: the % may be the effect or the level left. The data set is classed as functional. The note with it: time 22 day.

A short description of data set [13]: Toxicity in NOD/SCID mouse xenografted with human RS4-11 cells assessed as reduction in body weight at 12.5 to 50 mg/kg, ip administered every 2 days for 22 days. The data set is classed as organism-based. The following applies: in vivo, 528 h, dose 12.5-50 mg/kg, time 22 day.
The test system of data set [14] is RS4-11. Nature of the data set: Antitumor activity against human RS4-11 cells xenografted in SCID mouse assessed as reduction in Ki-67 positive cells administered intraperitoneally for 19 days by immunohistochemical analysis. The note with it: time 19.0 day. The data set is classed as functional, cell-based.
In data set [15] the target is T1, Bcl-2-like protein 1. Nature of the data set: Binding affinity to full length human Bcl-xl expressed in Escherichia coli BL21 (DE3) at up to 100 uM preincubated for 30 mins followed by 5-FAM-QEDIIIINIARHLAQVGDSMD-RSIPPG tracer addition and measured after 20 mins by fluorescence polarization assay. The following applies: dose microM <=100, time 50.0 min.
The target in data set [16] is Apoptosis regulator Bcl-2 (Homo sapiens, UniProt P10415). Nature of the data set: Binding affinity to full length human Bcl-2 expressed in Escherichia coli BL21 (DE3) at up to 100 uM preincubated for 30 mins followed by 5-FAM-QEDIIIINIARHLAQVGDSMD-RSIPPG tracer addition and measured after 20 mins by fluorescence polarization assay. The note with it: dose microM <=100, time 50.0 min.

The target of data set [17] is Induced myeloid leukemia cell differentiation protein Mcl-1/Bcl-2-like protein 11 (Homo sapiens) (UniProt Q07820+O43521). Nature of the data set: Inhibition of MCL1/Bim interaction in human MCF7 cells assessed as disruption of MCL1/Bim complex at 10 uM measured after 24 hrs by co-immunoprecipitation based western blot analysis relative to control. The data set is classed as cell-based.

A further data set relates to HeLa. The data set can be described thus: cells. The following applies: Homo sapiens, 48 h.
The next data set deals with HL-60. The data set can be described thus: cells. The following applies: Homo sapiens, HL-60, 48 h.
Data set [18] has as its system RS4-11. Nature of the data set: cells. The note with it: Homo sapiens, RS4-11, 48 h.
Description: Cytotoxicity against human RS4-11 cells assessed as inhibition of cell growth incubated for 48 hrs by CCK8 assay
The target in data set [19] is T1, Bcl-2-like protein 1. Nature of the data set: Inhibition of biotinylated Bim BH3 peptide binding to GST-tagged human Bcl-xl expressed in Escherichia coli BL21 (DE3) incubated for 1 hr by ELISA.

Active and inactive are the calls of the source. Where only a bound is given, the exact number is not on record here.

T1 sequence (Q07817 whole entry): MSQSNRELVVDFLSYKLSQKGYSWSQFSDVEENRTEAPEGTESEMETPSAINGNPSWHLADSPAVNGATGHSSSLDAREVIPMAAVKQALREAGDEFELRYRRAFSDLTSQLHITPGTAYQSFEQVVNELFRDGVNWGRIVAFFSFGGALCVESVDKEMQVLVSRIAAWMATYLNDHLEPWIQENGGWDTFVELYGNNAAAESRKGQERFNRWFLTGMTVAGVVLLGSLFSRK
Induced myeloid leukemia cell differentiation protein Mcl-1/Bcl-2-like protein 11 (Homo sapiens), sequence (O43521 whole entry, looked up): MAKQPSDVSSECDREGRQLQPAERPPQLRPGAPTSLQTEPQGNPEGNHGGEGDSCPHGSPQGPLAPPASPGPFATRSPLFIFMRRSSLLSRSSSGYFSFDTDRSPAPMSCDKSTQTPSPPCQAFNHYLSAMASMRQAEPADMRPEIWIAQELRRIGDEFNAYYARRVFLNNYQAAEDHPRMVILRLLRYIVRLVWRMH
Induced myeloid leukemia cell differentiation protein Mcl-1/Bcl-2-like protein 11 (Homo sapiens), sequence (Q07820 whole entry, looked up): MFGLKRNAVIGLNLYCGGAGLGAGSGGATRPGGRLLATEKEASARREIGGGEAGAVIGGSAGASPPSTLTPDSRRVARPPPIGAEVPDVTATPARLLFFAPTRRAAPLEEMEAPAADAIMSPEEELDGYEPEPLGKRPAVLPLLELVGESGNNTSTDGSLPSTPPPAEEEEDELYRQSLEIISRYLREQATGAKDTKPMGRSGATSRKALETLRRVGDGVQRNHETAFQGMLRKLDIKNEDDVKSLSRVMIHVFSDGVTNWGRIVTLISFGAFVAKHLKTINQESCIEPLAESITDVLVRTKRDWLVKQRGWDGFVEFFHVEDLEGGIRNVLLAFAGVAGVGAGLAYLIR
Induced myeloid leukemia cell differentiation protein Mcl-1, sequence (Q07820 whole entry): as the sequence (Q07820 whole entry, looked up) above
Apoptosis regulator Bcl-2, sequence (P10415 whole entry): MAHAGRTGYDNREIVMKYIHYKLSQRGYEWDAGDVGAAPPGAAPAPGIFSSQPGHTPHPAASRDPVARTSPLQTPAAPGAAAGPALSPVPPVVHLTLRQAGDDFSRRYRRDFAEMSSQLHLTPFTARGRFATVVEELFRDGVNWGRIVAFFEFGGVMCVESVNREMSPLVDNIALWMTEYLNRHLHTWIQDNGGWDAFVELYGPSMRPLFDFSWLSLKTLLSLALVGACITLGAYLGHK
Description for HL-60: Cytotoxicity against human HL-60 cells assessed as inhibition of cell growth incubated for 48 hrs by CCK8 assay
Description for HeLa: Cytotoxicity against human HeLa cells assessed as inhibition of cell growth incubated for 48 hrs by CCK8 assay

As usually defined, the Ki is a measure of affinity in units of concentration, obtained from inhibition or displacement. `Cc1cc(OCCCc2c3n(c4c(-c5c(C)nn(C)c5C)c(Cl)ccc24)CCCN(c2cc(C(=O)O)c4ccn(C)c4c2)C3=O)cc(C)c1Cl`: the Ki at Bcl-2-like protein 1 [1] is above 10 µM.
As a reminder, the IC50 is the midpoint of a concentration-inhibition curve. In general, inhibition refers to the share of the control response that was lost under treatment. On to `COc1ccc(Oc2cc(C)ccc2-c2ccsc2S(=O)(=O)NCCNC(=O)Nc2cc(C(F)(F)F)cc(C(F)(F)F)c2)cc1OC`, for which the Ki in data set [2] turned out to be 4.9 µM. Further, the Activity result with RS4-11 [3] was “Dose-Dependent Effect”; in the data set with RS4-11 [5], 4.15%; in the data set on RS4-11 [6], 94.21%; with RS4-11 [7] it was 0.24%; with RS4-11 [8], “Dose-Dependent Effect”; in the data set with RS4-11 [9], “Dose-Dependent Effect”. In addition, the Activity was 75% in the data set on RS4-11 [10]; above 60% in the data set on RS4-11 [11]; above 60% in the data set on RS4-11 [12]; “Non-Toxic” in data set [13]; “Dose-Dependent Effect” in the data set with RS4-11 [14]. For the same molecule, the half-inhibitory concentration (IC50) in the data set on HEK-293T worked out at 9 µM; with HeLa it was 10.2 µM; in the data set on HL-60, 5.3 µM; in the data set with RS4-11 [18], 5.6 µM. Further, the viability at 20 µM in the data set on RS4-11 [4] was 1.39%. In addition, in the data set on MCF7, the inhibition result was “inactive”. For the same molecule, the outcome (at Bcl-2-like protein 1 [15]; in [16]) was inactive. Further, in data set [17], the inhibition was found to be 30%.
On Bcl-2-like protein 1 [19], `O=C(c1ccccc1O)c1[nH]c(Cl)c(Cl)c1-n1c(C(=O)c2ccccc2O)cc(Cl)c1Cl` had an IC50 above 80 µM.

The values are drawn from ChEMBL document CHEMBL5034015, “Structure-Based Optimization of 3-Phenyl-N-(2-(3-phenylureido)ethyl)thiophene-2-sulfonamide Derivatives as Selective Mcl-1 Inhibitors” (J Med Chem, 2021).
